Experiments:
Assay in all cases: Cell proliferation assay (cell panel, MTS)
Format in all cases: cell-based
SK-MEL-31 = conditions: Homo sapiens, 72 h; SK-MEL-31, Melanoma, BRAF WT, RAS WT, 3 days
Method: (§1) The proliferation assays against a cell panel were performed as described in ref.[18] Briefly, the cells were treated with DMSO or multiple concentrations of AZ304 for 3 days. The cell growth was determined using the CellTiter 96 Aqueous One Cell Proliferation Assay (Promega, Madison, WI). […] The assays were done in triplicate across different plates.
(§2) Anti-proliferative activity of AZ304 against a panel of cell lines with different BRAF and RAS genetic status. […] Cell growth was determined by MTS assay.

Melma-3M = conditions: Homo sapiens, 72 h, Melanoma, BRAF V600E, RAS WT, 3 days
Method: as §1, §2

HCT-15 = conditions: Homo sapiens, 72 h; HCT-15, Colon, BRAF WT, KRAS MT, 3 days
Method: as §1, §2

NCI-H1755 = conditions: Homo sapiens, 72 h; NCI-H1755, Lung, BRAF A468, RAS WT, 3 days
Method: as §1, §2

LNCaP clone FGC = conditions: Homo sapiens, 72 h, Prostate, BRAF WT, RAS WT, 3 days
Method: as §1, §2

RPMI-8226 = conditions: Homo sapiens, RPMI-8226, 72 h; BRAF WT, KRAS MT, 3 days
Method: as §1, §2

A375 = conditions: Homo sapiens, A-375, 72 h; A375, Melanoma, BRAF V600E HM, RAS WT, 3 days
Method: as §1, §2

NIH: OVCAR-3 = conditions: Homo sapiens, 72 h; NIH: OVCAR-3, Ovary, BRAF WT, RAS WT, 3 days
Method: as §1, §2

SK-MEL-3 = conditions: Homo sapiens, SK-MEL3, 72 h; SK-MEL-3, Melanoma, BRAF V600E, RAS WT, 3 days
Method: as §1, §2

IM-9 = conditions: Homo sapiens, 72 h; IM-9, Lymphoma, BRAF WT, NRAS MT, 3 days
Method: as §1, §2

SK-MEL-24 = conditions: Homo sapiens, 72 h; SK-MEL-24, Melanoma, BRAF V600E, RAS WT, 3 days
Method: as §1, §2

SK-MEL-2 = conditions: Homo sapiens, 72 h; SK-MEL-2, Melanoma, BRAF WT, NRAS MT, 3 days
Method: as §1, §2

SK-OV3 = conditions: Homo sapiens, SK-OV-3, 72 h; SK-OV3, Ovary, BRAF WT, RAS WT, 3 days
Method: as §1, §2

PANC-1 = conditions: Homo sapiens, 72 h; PANC-1, Pancreas, BRAF WT, KRAS MT, 3 days
Method: as §1, §2

MC-F7/mdr+ = conditions: Homo sapiens, MCF7, 72 h, Breast, BRAF WT, RAS WT, 3 days
Method: as §1, §2

MIAPaCa-2 = conditions: Homo sapiens, MIA PaCa-2, 72 h; MIAPaCa-2, Pancreas, BRAF WT, KRAS MT, 3 days
Method: as §1, §2

MC-F7 = conditions: Homo sapiens, MCF7, 72 h; MC-F7, Breast, BRAF WT, RAS WT, 3 days
Method: as §1, §2

NCI-H460 = conditions: Homo sapiens, 72 h; NCI-H460, Lung, BRAF WT, KRAS MT, 3 days
Method: as §1, §2

MDA-MB-468 = conditions: Homo sapiens, 72 h; MDA-MB-468, Breast, BRAF WT, RAS WT, 3 days
Method: as §1, §2

U937 = conditions: Homo sapiens, U-937, 72 h; U937, Lymphoma, BRAF WT, RAS WT, 3 days
Method: as §1, §2

L-363 = conditions: Homo sapiens, 72 h; L-363, Leukemia, BRAF WT, NRAS MT, 3 days
Method: as §1, §2

MDA-MB-231 = conditions: Homo sapiens, 72 h; MDA-MB-231, Breast, BRAF G464V HT, KRAS MT, 3 days
Method: as §1, §2

JVM-3 = conditions: Homo sapiens, 72 h; JVM-3, Lymphoma, BRAF K601N, RAS WT, 3 days
Method: as §1, §2

A549 = conditions: Homo sapiens, 72 h; A549, Lung, BRAF WT, KRAS MT, 3 days
Method: as §1, §2

SW620 = conditions: Homo sapiens, SW-620, 72 h; SW620, Colon, BRAF WT, KRAS MT, 3 days
Method: as §1, §2

A2058 = conditions: Homo sapiens, 72 h; A2058, Melanoma, BRAF V600E HT, RAS WT, 3 days
Method: as §1, §2

PC-3 = conditions: Homo sapiens, 72 h; PC-3, Prostate, BRAF WT, RAS WT, 3 days
Method: as §1, §2

CHL-1 = conditions: Homo sapiens, 72 h; CHL-1, Melanoma, BRAF WT, RAS WT, 3 days
Method: as §1, §2

HCT116 = conditions: Homo sapiens, HCT-116, 72 h; HCT116, Colon, BRAF WT, KRAS MT, 3 days
Method: as §1, §2

DU145 = conditions: Homo sapiens, DU-145, 72 h; DU145, Prostate, BRAF WT, RAS WT, 3 days
Method: as §1, §2

## COc1ccc2c(Nc3cc(NC(=O)c4cccc(C(C)(C)C#N)c4)ccc3C)ncnc2c1 [AZ304]
SK-MEL-31
  GI50: 430 nM
Melma-3M
  GI50: 100 nM
HCT-15
  GI50: 11.5 µM
NCI-H1755
  GI50: 7.72 µM
LNCaP clone FGC
  GI50: 3.32 µM
RPMI-8226
  GI50: 5.37 µM
A375
  GI50: 230 nM
NIH: OVCAR-3
  GI50: 11 µM
SK-MEL-3
  GI50: 530 nM
IM-9
  GI50: 900 nM
SK-MEL-24
  GI50: 80 nM
SK-MEL-2
  GI50: 3.91 µM
SK-OV3
  GI50: 6.18 µM
PANC-1
  GI50: 5.45 µM
MC-F7/mdr+
  GI50: 7.63 µM
MIAPaCa-2
  GI50: 1160 nM
MC-F7
  GI50: 10.1 µM
NCI-H460
  GI50: 8.56 µM
MDA-MB-468
  GI50: 8.83 µM
U937
  GI50: 9.37 µM
L-363
  GI50: 7.02 µM
MDA-MB-231
  GI50: 1990 nM
JVM-3
  GI50: 1680 nM
A549
  GI50: 16.7 µM
SW620
  GI50: 2780 nM
A2058
  GI50: 3.82 µM
PC-3
  GI50: 6.68 µM
CHL-1
  GI50: 8.27 µM
HCT116
  GI50: 2740 nM
DU145
  GI50: 11.7 µM

From PMC5988692, “AZ304, a novel dual BRAF inhibitor, exerts anti-tumour effects in colorectal cancer independently of BRAF genetic status” (British Journal of Cancer, 2018)
